Results as given in US20250320206A1, “STAT6 DEGRADERS” (Gilead Sciences, Inc., priority 2024, published 2025).

Experiments:
[1] = molecular target: T1, STAT6 (Homo sapiens, UniProt P42226); assay: Stat6 Degrader Assay (HiBiT based, HeLa LgBiT clone 4.14); type: cell-based; settings: HeLa LgBiT clone 4.14 HiBiT-STAT6, 4-24 h incubation; values given for compounds with >80% Emax; geometric mean; read-out: STAT6 degradation DC50
T1 construct: These cells express endogenous STAT6; host or cells: HeLa LgBiT clone 4.14
T1 sequence (P42226 1-847): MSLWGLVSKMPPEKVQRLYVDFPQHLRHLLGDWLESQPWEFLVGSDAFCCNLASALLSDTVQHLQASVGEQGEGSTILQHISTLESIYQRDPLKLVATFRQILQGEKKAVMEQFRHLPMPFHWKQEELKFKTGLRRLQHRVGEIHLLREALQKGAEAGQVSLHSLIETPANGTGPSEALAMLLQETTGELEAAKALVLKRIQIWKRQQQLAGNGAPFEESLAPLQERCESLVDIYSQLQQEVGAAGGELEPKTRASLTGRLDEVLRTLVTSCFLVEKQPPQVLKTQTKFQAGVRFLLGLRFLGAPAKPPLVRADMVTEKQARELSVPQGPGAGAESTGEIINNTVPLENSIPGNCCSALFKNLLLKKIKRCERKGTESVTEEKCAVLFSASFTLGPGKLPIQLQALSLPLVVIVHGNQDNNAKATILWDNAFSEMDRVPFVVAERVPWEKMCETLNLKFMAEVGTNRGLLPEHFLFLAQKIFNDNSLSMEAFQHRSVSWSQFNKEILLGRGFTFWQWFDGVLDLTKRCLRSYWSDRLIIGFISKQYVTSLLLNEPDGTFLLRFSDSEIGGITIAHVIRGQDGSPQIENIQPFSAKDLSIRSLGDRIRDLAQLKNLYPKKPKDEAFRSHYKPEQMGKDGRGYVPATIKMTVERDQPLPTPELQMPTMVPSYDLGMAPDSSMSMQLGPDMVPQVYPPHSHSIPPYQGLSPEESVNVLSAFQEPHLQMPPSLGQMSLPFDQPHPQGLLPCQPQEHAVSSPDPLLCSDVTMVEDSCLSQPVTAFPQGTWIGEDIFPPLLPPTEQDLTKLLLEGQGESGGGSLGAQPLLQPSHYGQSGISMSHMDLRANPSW
Procedure, shortened: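 HeLa LgBiT clone 4.14 cells with CRISPR HiBiT-tagged endogenous STAT6, 5000 cells/well, compound dosed then incubated 4-24 h at 37° C, 5% CO2. Nano-Glo substrate added, 0.5 h, luminescence read as non-degraded STAT6. Terfenadine 50 μM (cell kill) defines 100% degradation.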

[2] = test system: Eotaxin-3 release in human whole blood stimulated with IL-4; assay: Human Whole Blood Eotaxin-3 Assay (IL-4 stimulated eotaxin-3 release); type: cell-based; settings: IL-4 stimulation, 48 h, values given for compounds with >80% Emax, geometric mean
Procedure, shortened: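 Lithium-heparin human whole blood preincubated 2 h at 37° C with 4-fold serially diluted compounds (0.5% DMSO), then stimulated with recombinant human IL-4 ([…]) for 48 h. Eotaxin-3 (CCL26) in supernatant quantified by MSD immunoassay.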

SMILES	DC50 [1] [nM]	EC50 [2] [nM]
CNc1ccn(-c2ccnc3c2cc([C@H](C)N2CC=C(c4c(C)cc(C(=O)N5CCC(CN6CCN(Cc7ccc8c(c7)n(C)c(=O)n8C7CCC(=O)NC7=O)CC6)CC5)cc4F)CC2)n3C)c(=O)c1 (stereo partly drawn) [Example 3u155, 3-(5-((4-((1-(3-fluoro-5-methyl-4-(1-((S)-1-(1-methyl-4-(4-(methylamino)-2-oxopyridin-1 (2H)-yl)-1H-pyrrolo[2,3-b]pyridin-2-yl)ethyl)-1,2,3,6-tetrahydropyridin-4-yl)benzoyl)piperidin-4-yl)methyl)piperazin-1-yl)methyl)-3-methyl-2-oxo-2,3-dihydro-1H-benzo[d]imidazol-1-yl)piperidine-2,6-dione]	0.3	0.5
CNc1ccn(-c2ccnc3c2cc([C@H](C)N2CC=C(c4c(C)cc(C(=O)N5CCC(CN6CCN(Cc7cc8c(cc7F)n(C7CCC(=O)NC7=O)c(=O)n8C7CC7)C[C@@H]6C)CC5)cc4F)CC2)n3C)c(=O)c1 (stereo partly drawn) [Example 3u166, 3-(3-cyclopropyl-6-fluoro-5-(((S)-4-((1-(3-fluoro-5-methyl-4-(1-((S)-1-(1-methyl-4-(4-(methylamino)-2-oxopyridin-1 (2H)-yl)-1H-pyrrolo[2,3-b]pyridin-2-yl)ethyl)-1,2,3,6-tetrahydropyridin-4-yl)benzoyl)piperidin-4-yl)methyl)-3-methylpiperazin-1-yl)methyl)-2-oxo-2,3-dihydro-1H-benzo[d]imidazol-1-yl)piperidine-2,6-dione]	1.1	1.3
Cc1cc(C(=O)N2CCC(CN3CCN(Cc4ccc5c(c4)C(C)(C)C(=O)N5C4CCC(=O)NC4=O)C[C@@H]3C)CC2)cc(F)c1C1=CCN([C@@H](C)c2cc3c(-n4cc(F)c(N)cc4=O)ccnc3n2C)CC1 (stereo partly drawn) [Example 3u169, 3-(5-(((S)-4-((1-(4-(1-((S)-1-(4-(4-amino-5-fluoro-2-oxopyridin-1 (2H)-yl)-1-methyl-1H-pyrrolo[2,3-b]pyridin-2-yl)ethyl)-1,2,3,6-tetrahydropyridin-4-yl)-3-fluoro-5-methylbenzoyl)piperidin-4-yl)methyl)-3-methylpiperazin-1-yl)methyl)-3,3-dimethyl-2-oxoindolin-1-yl)piperidine-2,6-dione]	4.1	14.6
CNc1cc(=O)n(-c2ccnc3c2cc([C@H](C)N2CC=C(c4c(C)cc(C(=O)N5CCC(CN6CCN(Cc7ccc8c(c7)C(C)(C)C(=O)N8C7CCC(=O)NC7=O)C[C@@H]6C)CC5)cc4F)CC2)n3C)cc1F (stereo partly drawn) [Example 3u172, 3-(5-(((S)-4-((1-(3-fluoro-4-(1-((S)-1-(4-(5-fluoro-4-(methylamino)-2-oxopyridin-1 (2H)-yl)-1-methyl-1H-pyrrolo[2,3-b]pyridin-2-yl)ethyl)-1,2,3,6-tetrahydropyridin-4-yl)-5-methylbenzoyl)piperidin-4-yl)methyl)-3-methylpiperazin-1-yl)methyl)-3,3-dimethyl-2-oxoindolin-1-yl)piperidine-2,6-dione]	2.9	13.2
CNc1ccn(-c2ccnc3c2cc([C@H](C)N2CC=C(c4c(C)cc(C(=O)N5CCC(CN6CCN(Cc7ccc8c(c7)C(C)(C)C(=O)N8C7CCC(=O)NC7=O)C[C@@H]6C)CC5)cc4F)CC2)n3C)c(=O)c1 (stereo partly drawn) [Example 3u175, 3-(5-(((S)-4-((1-(3-fluoro-5-methyl-4-(1-((S)-1-(1-methyl-4-(4-(methylamino)-2-oxopyridin-1 (2H)-yl)-1H-pyrrolo[2,3-b]pyridin-2-yl)ethyl)-1,2,3,6-tetrahydropyridin-4-yl)benzoyl)-piperidin-4-yl)methyl)-3-methylpiperazin-1-yl)methyl)-3,3-dimethyl-2-oxoindolin-1-yl)piperidine-2,6-dione]	1.3	3.8
CNc1ccn(-c2ccnc3c2cc([C@H](C)N2CC=C(c4c(C)cc(C(=O)N5CCC(CN6CCN(Cc7cc8c(cc7F)N(C7CCC(=O)NC7=O)C(=O)C8(C)C)C[C@@H]6C)CC5)cc4F)CC2)n3C)c(=O)c1 (stereo partly drawn) [Example 3u181, 3-(6-fluoro-5-(((S)-4-((1-(3-fluoro-5-methyl-4-(1-((S)-1-(1-methyl-4-(4-(methyl-amino)-2-oxopyridin-1 (2H)-yl)-1H-pyrrolo[2,3-b]pyridin-2-yl)ethyl)-1,2,3,6-tetrahydropyridin-4-yl)-benzoyl)piperidin-4-yl)methyl)-3-methylpiperazin-1-yl)methyl)-3,3-dimethyl-2-oxoindolin-1-yl)-piperidine-2,6-dione]	3.4	16.3

Results, then the compound that gave them:

DC50 [1] [nM]	EC50 [2] [nM]	SMILES
33.8	27.6	CNc1ccn(-c2ccnc3c2cc(CN2CCC(c4c(F)cc(C(=O)N5CCC(CN6CCN(c7ccc8c(c7)C7(CC7)C(=O)N8C7CCC(=O)NC7=O)CC6)CC5)cc4F)CC2)n3C)c(=O)c1 (centres unmarked) [Example 3u149, 3-(5′-(4-((1-(3,5-difluoro-4-(1-((1-methyl-4-(4-(methylamino)-2-oxopyridin-1 (2H)-yl)-1H-pyrrolo[2,3-b]pyridin-2-yl)methyl)piperidin-4-yl)benzoyl)piperidin-4-yl)methyl)piperazin-1-yl)-2′-oxospiro[cyclopropane-1,3′-indolin]-1′-yl)piperidine-2,6-dione]
6.6	13.2	CNc1cc(=O)n(-c2ccnc3c2cc([C@H](C)N2CC=C(c4c(C)cc(C(=O)N5CCC(CN6CCN(Cc7cc8c(cc7F)N(C7CCC(=O)NC7=O)C(=O)C87CC7)CC6)CC5)cc4F)CC2)n3C)cc1F (stereo partly drawn) [Example 3u152, 3-(6′-fluoro-5′-((4-((1-(3-fluoro-4-(1-((S)-1-(4-(5-fluoro-4-(methylamino)-2-oxopyridin-1 (2H)-yl)-1-methyl-1H-pyrrolo[2,3-b]pyridin-2-yl)ethyl)-1,2,3,6-tetrahydropyridin-4-yl)-5-methylbenzoyl)piperidin-4-yl)methyl)piperazin-1-yl)methyl)-2′-oxospiro[cyclopropane-1,3′-indolin]-1′-yl)piperidine-2,6-dione]
1	2	CNc1cc(=O)n(-c2ccnc3c2cc([C@H](C)N2CC=C(c4c(C)cc(C(=O)N5CCC(CN6CCN(Cc7ccc8c(c7)C7(CC7)C(=O)N8C7CCC(=O)NC7=O)C[C@@H]6C)CC5)cc4F)CC2)n3C)cc1F (stereo partly drawn) [Example 3u164, 3-(5′-(((S)-4-((1-(3-fluoro-4-(1-((S)-1-(4-(5-fluoro-4-(methylamino)-2-oxopyridin-1 (2H)-yl)-1-methyl-1H-pyrrolo[2,3-b]pyridin-2-yl)ethyl)-1,2,3,6-tetrahydropyridin-4-yl)-5-methyl-benzoyl)piperidin-4-yl)methyl)-3-methylpiperazin-1-yl)methyl)-2′-oxospiro[cyclopropane-1,3′-indolin]-1′-yl)piperidine-2,6-dione]
5.6	7.7	CNc1ccn(-c2ccnc3c2cc(CN2CC=C(c4c(C)cc(C(=O)N5CCC(CN6CCN(Cc7ccc8c(c7)C(C)(C)C(=O)N8C7CCC(=O)NC7=O)C[C@@H]6C)CC5)cc4F)CC2)n3C)c(=O)c1 (stereo partly drawn) [Example 3u178, 3-(5-(((S)-4-((1-(3-fluoro-5-methyl-4-(1-((1-methyl-4-(4-(methylamino)-2-oxopyridin-1 (2H)-yl)-1H-pyrrolo[2,3-b]pyridin-2-yl)methyl)-1,2,3,6-tetrahydropyridin-4-yl)benzoyl)piperidin-4-yl)methyl)-3-methylpiperazin-1-yl)methyl)-3,3-dimethyl-2-oxoindolin-1-yl)piperidine-2,6-dione]
